In patent US20250042862A1, “AROMATIC HETEROCYCLIC COMPOUND AND APPLICATION THEREOF” (Shanghai Institute of Materia Medica, Chinese Academy of …, priority 2021, published 2025):
pIC50: −log10 of the molar value.

Key:
[1] = target: human recombinant LSD1 protein (Homo sapiens (Human), UniProt O60341); assay: In vitro enzyme inhibition activity assay - LSD1 (Lance Ultra TR-FRET); assay type: biochemical; settings: all compounds tested in the form of hydrochloride
Procedure: The purpose of this experiment was to test the in vitro inhibitory activity of the compounds against LSD1. The human recombinant LSD1 protein used in the experiment was purchased from Active Motif, and the enzyme level activity testing assay of LSD1 was performed using the Lance Ultra LSD1 Histone H3 Lysine 4 Demethylase Assay Kit (PerkinElmer). Tris-buffer (50 mMTris-HCl, 50 mMNaCl, 0.01% Tween-20, 1 mM DTT, 10 μM FAD, 10% glycerol, pH 9.0) was first prepared, and after preparation, the LSD1 fractions required for test were placed in this buffer and incubated for one hour at room temperature; the fractions included 4 μL of substrate solution ([…] Bio-H3K4me2, 1-24aa), 4 μL of enzyme solution (4 nM LSD1), and 2 μL of inhibitor in a 384-well microplate. After these operations, another 5 μL of assay mixture containing Eu-labeled H3K4me0 antibody and ULight-Streptavidin anti-biotin protein was added to the system, after which the fluorescence intensity of the components to be tested was detected by using Envision (PerkinElmer) in TR-FRET mode (excitation wavelength of 320 nm, emission wavelength of 620 nm). The test was repeated a total of three times to minimize errors. The final IC50 data were calculated by the software GraphPad Prism 5, and finally the sigmoidal dose-response (variable slope) method was used to obtain the fitted curve.
The LSD1 inhibitory activities of representative compounds of the present application as well as the positive control compound CC90011 were provided in Table 2. All compounds were tested in the form of hydrochloride.

[2] = test system: MV4-11 cell line transplanted tumor; assay: In vivo efficacy evaluation in mouse transplanted tumor model; design: species or system mouse (female NU/NU nude mice); settings: MV4-11 xenograft in NU/NU nude mice; 20 mg/kg by gavage every day for 21 days
Procedure: Experimental purpose: To test the in vivo efficacy of compounds in mouse transplanted tumor model Experimental materials: female NU/NU nude mice, MV4-11 cell line Experimental methods: female NU/NU nude mice, weighing 20±2 g, were inoculated with MV4-11 cell line in the right axillary subcutaneous with a cell inoculation amount of 5×10^6/mouse. When the tumor formed, the diameter of the transplanted tumor was measured with vernier calipers, and the tumor was grew up to 100-300 mm^3; the animals were divided into model control group and administration group according to their weights and tumor volumes, with 6 animals per group. The administration group was administered with a suspension ground with 0.5% CMC-Na, while the model control group was given an equal amount of blank solvent. After grouping, the drug was administered orally every day at a dose of 20 mg/kg for 21 days. During the experiment, the diameter of the transplanted tumor was measured and the weight of the mice was weighed twice a week, and the tumor tissues were taken from the animal after euthanasia on the 21st day. […]

SMILES	pIC50 [1]	relative tumor proliferation rate T/C [2]
N#Cc1ccc(-c2nc(N3CCC[C@@H](N)CC3)nc3ccc(-c4c(F)cccc4C(F)(F)F)cc23)cc1F (stereo in doubt) [Compound 89, 4-(2-(4-aminoazepan-1-yl)-6-(2-fluoro-6-(trifluoromethyl)phenyl)quinazolin-4-yl)-2-fluorobenzonitrile]	≥ 7.52	less than 50%
N#Cc1ccc(-c2nc(N3CCC(N)CC3)nc3ccc(-c4c(F)cccc4C(F)(F)F)cc23)cc1F [Compound 19, 4-(2-(4-aminopiperidin-1-yl)-6-(2-fluoro-6-(trifluoromethyl)phenyl)quinazolin-4-yl)-2-fluorobenzonitrile]	≥ 7.52	less than 50%
N#Cc1ccc(-c2nc(N3CC[C@@H](N)[C@H](F)C3)nc3ccc(-c4c(F)cccc4C(F)(F)F)cc23)cc1F [Compound 84, 4-(2-((3R,4R)-4-amino-3-fluoropiperidin-1-yl)-6-(2-fluoro-6-(trifluoromethyl)phenyl)quinazolin-4-yl)-2-fluorobenzonitrile]	6.52 to 7.52	–
N#Cc1ccc(-c2nc(N3CC[C@H](N)[C@@H](F)C3)nc3ccc(-c4c(F)cccc4C(F)(F)F)cc23)cc1F [Compound 85, 4-(2-((3S,4S)-4-amino-3-fluoropiperidin-1-yl)-6-(2-fluoro-6-(trifluoromethyl)phenyl)quinazolin-4-yl)-2-fluorobenzonitrile]	6.52 to 7.52	–
N#Cc1ccc(-c2nc(N3CCCC[C@H](N)C3)nc3ccc(-c4c(F)cccc4C(F)(F)F)cc23)cc1F [Compound 86, (S)-4-(2-(3-aminoazepan-1-yl)-6-(2-fluoro-6-(trifluoromethyl)phenyl)quinazolin-4-yl)-2-fluorobenzonitrile]	≥ 7.52	–
N#Cc1ccc(-c2nc(N3CCCC[C@@H](N)C3)nc3ccc(-c4c(F)cccc4C(F)(F)F)cc23)cc1F [Compound 87, (R)-4-(2-(3-aminoazepan-1-yl)-6-(2-fluoro-6-(trifluoromethyl)phenyl)quinazolin-4-yl)-2-fluorobenzonitrile]	≥ 7.52	–
N#Cc1ccc(-c2nc(N3CCC[C@H](N)CC3)nc3ccc(-c4c(F)cccc4C(F)(F)F)cc23)cc1F [Compound 88, (S)-4-(2-(4-aminoazepan-1-yl)-6-(2-fluoro-6-(trifluoromethyl)phenyl)quinazolin-4-yl)-2-fluorobenzonitrile]	≥ 7.52	–
N#Cc1ccc(-c2nc(N3CC[C@H](N)C3)nc3ccc(-c4c(F)cccc4C(F)(F)F)cc23)cc1F [Compound 90, (S)-4-(2-(3-aminopyrrolidin-1-yl)-6-(2-fluoro-6-(trifluoromethyl)phenyl)quinazolin-4-yl)-2-fluorobenzonitrile]	≥ 7.52	–
N#Cc1ccc(-c2nc(N3CC[C@@H](N)C3)nc3ccc(-c4c(F)cccc4C(F)(F)F)cc23)cc1F [Compound 91, (R)-4-(2-(3-aminopyrrolidin-1-yl)-6-(2-fluoro-6-(trifluoromethyl)phenyl)quinazolin-4-yl)-2-fluorobenzonitrile]	≥ 7.52	–

Continued, in another order:

pIC50 [1]	SMILES	relative tumor proliferation rate T/C [2]
6.52 to 7.52	N#Cc1ccc(-c2nc(N3CCC(N)CC3)nc3c2CN(c2ccccc2C(F)(F)F)CC3)cc1F [Compound 92, 4-(2-(4-aminopiperidin-1-yl)-6-(2-(trifluoromethyl)phenyl)-5,6,7,8-tetrahydropyrido[4,3-d]pyrimidin-4-yl)-2-fluorobenzonitrile]	–
6.52 to 7.52	N#Cc1ccc(-c2nc(N3CCC(N)CC3)nc3c2CN(c2c(F)cccc2C(F)(F)F)CC3)cc1F [Compound 93, 4-(2-(4-aminopiperidin-1-yl)-6-(2-fluoro-6-(trifluoromethyl)phenyl)-5,6,7,8-tetrahydropyrido[4,3-d]pyrimidin-4-yl)-2-fluorobenzonitrile]	–
6.52 to 7.52	Cn1ncc2cccc(N3CCc4nc(N5CCC(N)CC5)nc(-c5ccc(C#N)c(F)c5)c4C3)c21 [Compound 94, 4-(2-(4-aminopiperidin-1-yl)-6-(1-methyl-1H-indazol-7-yl)-5,6,7,8-tetrahydropyrido[4,3-d]pyrimidin-4-yl)-2-fluorobenzonitrile]	–
≥ 7.52	N#Cc1ccc(-c2nc(N3CCC(N)CC3)cc3ccc(-c4c(F)cccc4C(F)(F)F)cc23)cc1F [Compound 98, 4-(3-(4-Aminopiperidin-1-yl)-7-(2-fluoro-6-(trifluoromethyl)phenyl)isoquinolin-1-yl)-2-fluorobenzonitrile]	–
≥ 7.52	Cn1c(=O)c(-c2ccccc2C(F)(F)F)cc2c(-c3ccc(C#N)c(F)c3)nc(N3CCC(N)CC3)nc21 [Compound 99, 4-(2-(4-aminopiperidin-1-yl)-8-methyl-7-oxo-6-(2-trifluoromethylphenyl)-7,8-dihydropyrido[2,3-d]pyrimidin-4-yl)-2-fluorobenzonitrile]	–
